Source: PMC7285321, “Evaluation of Indolocarbazoles from Streptomyces sanyensis as a Novel Source of Therapeutic Agents against the Brain-Eating Amoeba Naegleria fowleri” (Microorganisms, 2020)
Like-named read-outs stand apart in the source and are kept apart here.

What was measured:
[1] = tested on: Naegleria fowleri ATCC 30808 trophozoites; test: In vitro amoebicidal activity, alamarBlue colorimetric assay, trophozoites; conditions: for SI (CC50/IC50): CC50 J774A.1 / IC50 N. fowleri ATCC 30808; for IC50: Naegleria fowleri
Description: (§1) Amoebae were grown at 37 °C in axenic conditions in 2% (w/v) bactocasitone medium (Thermo Fisher Scientific, Madrid, Spain) supplemented with 10% (v/v) foetal bovine serum (FBS), […] of penicillin G and 0,5 mg/mL of streptomycin sulphate (Sigma-Aldrich, Madrid, Spain). As required by the Spanish Government biosafety guidelines for this pathogen, amoebic strains were cultured in a biological security facility level 3 at the Instituto Universitario de Enfermedades Tropicales y Salud Pública de Canarias, Universidad de La Laguna.
(§2) The in vitro activity of the four ICZs included in this study was evaluated against trophozoites of two Naegleria fowleri type strains using a colorimetric assay. Amoebae (2 × 10^5 cells/mL) were placed in a sterile 96-well microtiter plate. Next, 50 μL of a serial dilution of each of the ICZs (in N. fowleri culture medium) was added to the plate. In all the activity assays, 2% DMSO was used to dissolve the highest dose of the molecules to prevent generation of any effects in the amoebic cells. Negative controls were also included in the assays, consisting of the addition of medium alone to the seeded trophozoites as previously described. Miltefosine and amphotericin B were used as positive controls whereas the addition of medium alone to the seeded trophozoites was considered as the negative control. Lastly, 10% of the alamarBlue® reagent was placed in each well, and plates were incubated with slight agitation for 48 h at 37 °C. After that, activity plates were evaluated with an EnSpire® Multimode Plate Reader (Perkin Elmer, Madrid, Spain) using a wavelength of 570 nm and a reference wavelength of 630 nm.
(§3) The IC90 values of the compounds were calculated using a GraphPad calculator (GraphPad Software, San Diego, CA, USA) based on the calculated IC50 and the Hill Slope (H). All experiments were performed in triplicate, and the mean values were also calculated.

[2] = Cytotoxicity assay, alamarBlue; assay type: cell-based; conditions: mouse, 37 °C, mean ± SD, read-out: Murine Macrophage J774.A1 CC50
Description: (§4) Evaluation of in vitro toxicity was carried out using the murine macrophage J774A.1 cell line (ATCC # TIB-67, LG Promochem, Barcelona, Spain) which was routinely cultured in Dulbecco’s Modified Eagle’s medium (DMEM, w/v) supplemented with 10% (v/v) FBS and 10 µg/mL of gentamicin (Sigma–Aldrich, Madrid, Spain), at 37 °C in a 5% CO2 atmosphere as previously described.
(§5) Cytotoxicity of the compounds was evaluated using toxicity assays established in our laboratory based on the evaluation of the toxicity induced in a murine macrophages J774.A1 cell line (ATCC® TIB-67™). Concisely, different concentrations of the ICZs were incubated with the cell line, and alamarBlue® reagent (10% of medium volume) was placed in each well and incubated for 24 h, at 37 °C under 5% CO2 conditions. Results were examined as described in Section 2.4.1.

[3] = tested on: Naegleria fowleri ATCC 30215 trophozoites; test: In vitro amoebicidal activity, alamarBlue colorimetric assay, trophozoites; assay type: cell-based; conditions: for IC50: ATCC30215, trophozoites, 48 h, 37 °C, mean ± SD, read-out: N. fowleri ATCC 30215 IC50
Description: as §1, §2, §3

[4] = tested on: murine macrophage J774A.1 cell line; test: Cytotoxicity assay, alamarBlue; assay type: cell-based; conditions: 24 h, 37 °C, mean ± SD; read-out: Murine Macrophage J774.A1 CC50
Description: as §4, §5

[5] = tested on: Naegleria fowleri trophozoites; test: Cellular membrane damage, SYTOX Green assay; assay type: cell-based; conditions: IC90, 24 h; both strains
Description: The SYTOX Green assay (Life Technologies, Madrid, Spain) allows the detection of alterations in the permeability of the cell membrane. The SYTOX Green dye binds to DNA, showing intense green fluorescence, only if the plasmatic membrane is damaged and allows it to enter the cytoplasm. […] After 24 h, 1 μM SYTOX Green (final concentration) was added to the cell culture and incubated for 15 min. Next, cells were examined in an EVOS FL Cell Imaging System AMF4300 (Life Technologies, Madrid, Spain).

[6] = tested on: Naegleria fowleri trophozoites; test: Detection of DNA/chromatin condensation, Hoechst 33342/propidium iodide double stain; assay type: cell-based; conditions: IC90, 24 h; similar for both strains
From the text: The double-stain apoptosis detection kit constituted by Hoechst 33342 and propidium iodide (PI) (Life Technologies, Madrid. Spain) and an EVOS FL Cell Imaging System AMF4300 (Life Technologies, Madrid, Spain) were used in these experiments as per the manufacturer’s instructions. […] The assay is able to separate three groups of cell populations: dead cells which show an intense red and low-blue fluorescence; healthy cells showing a low level of fluorescence, and cells in PCD presenting intense blue fluorescence (condensed chromatin/DNA).

[7] = tested on: Naegleria fowleri trophozoites; test: Intracellular ROS generation, CellROX Deep Red assay; assay type: cell-based; conditions: IC90, 24 h; similar for both strains
Description: Next, cells were exposed to 5 μM CellROX Deep Red for 30 min at 37 °C in the dark and observed after using the EVOS FL Cell Imaging System AMF4300 (Life Technologies, Madrid, Spain). The presence of intracellular ROS was shown by the detection of high red fluorescence in the cells.

[8] = tested on: Naegleria fowleri trophozoites; test: Mitochondrial membrane potential, JC-1 assay; assay type: cell-based; conditions: IC90, 24 h; similar for both strains
Description: The evaluation of mitochondrial function disruption in STS-treated amoebae was carried out using the Celltiter-Glo® Luminescent Cell Viability Assay (Promega Biotech Ibérica, Madrid, Spain) and the JC-1 Mitochondrial Membrane Potential Detection Kit (Cayman Chemicals, Vitro SA, Madrid, Spain). The first kit detects the levels of ATP in STS-treated cells in comparison to non-treated cells.
Images were captured using an EVOS FL Cell Imaging System AMF4300 (Life Technologies, Madrid, Spain). The obtained staining pattern permitted the identification of two groups in a cellular population: live cells which would show only red fluorescence and cells presenting low mitochondrial membrane potential (undergoing PCD) which would show an intense level of green and red fluorescence.

[9] = ATCC30808, 48 h, read-out: N. fowleri ATCC 30808 IC50

SMILES | Activity against N. fowleri, in words [1] | SI (CC50/IC50) [1] | IC50 [1, 9] | CC50 at 24 h ([2]; J774A.1 macrophage cell line) | further results
CO[C@@H]1C(=O)C[C@H]2O[C@]1(C)n1c3ccccc3c3c4c(c5c6ccccc6n2c5c31)C(=O)NC4 [4′D4′OSTS (3), 4′-demethylamino-4′-oxostaurosporine] | only active against the N. fowleri ATCC 30808 strain | >1.9 | 10.8 ± 2.92 µM | > 20 µM | 
CN[C@@H]1C[C@H]2O[C@@](C)([C@@H]1OC)n1c3ccccc3c3c4c(c5c6ccccc6n2c5c31)C(=O)NC4=O [7OSTS (2), 7-oxostaurosporine] |  | 4.1 | 1.28 ± 0.35 µM |  | IC50 [3]: 1.07 ± 0.23 µM; CC50 [4]: 5.2 ± 1.75 µM
C[C@@H]1[C@H](O)[C@@H](C)/C=C/C=C/C=C/C=C/C=C/C=C/C=C/[C@H](O[C@@H]2O[C@H](C)[C@@H](O)[C@H](N)[C@@H]2O)C[C@@H]2O[C@](O)(C[C@@H](O)C[C@@H](O)[C@H](O)CC[C@@H](O)C[C@@H](O)CC(=O)O[C@H]1C)C[C@H](O)[C@H]2C(=O)O [Amphotericin B] |  | ≥1666.7 | 0.12 ± 0.03 µM | ≥ 200 µM | IC50 [3]: 0.16 ± 0.02 µM
O=C1NC(=O)c2c1c1c3ccccc3[nH]c1c1[nH]c3ccccc3c21 [Arcyriflavin A (9), arcyriaflavin A] | no activity was observed |  | > 20 µM |  | 
COC(=O)C1(O)CC2OC1(C)n1c3ccccc3c3c4c(c5c6ccccc6n2c5c31)C(=O)NC4 (centres unmarked) [K252a (6), K252a] |  | 3.2 | 0.34 ± 0.09 µM |  | IC50 ([1]; ATCC30808, read-out: Activity (IC50) N. fowleri ATCC 30808, text): 0.338 ± 0.09 µM; IC50 [3]: 0.12 ± 0.03 µM; CC50 at 24 h [2]: 1.07 ± 0.21 µM
CC12OC(CC1(O)C(=O)O)n1c3ccccc3c3c4c(c5c6ccccc6n2c5c31)CNC4=O (centres unmarked) [K252b (7), K252b] |  |  | > 20 µM |  | 
O=C1NCc2c1c1c3ccccc3[nH]c1c1[nH]c3ccccc3c21 [K252c (8), K252c] | no activity was observed |  | > 20 µM |  | 
CCCCCCCCCCCCCCCCOP(=O)([O-])OCC[N+](C)(C)C [Miltefosine, miltefosine] |  | 3.3 |  | 128 ± 8.85 µM | 
CO[C@H]1[C@H](O)[C@@H](O)[C@H](n2c3c(Cl)cccc3c3c4c(c5c6cccc(Cl)c6[nH]c5c32)C(=O)NC4=O)O[C@@H]1CO [Rebeccamycin (5), rebeccamycin] | not active |  | > 20 µM |  | 
COC1=C(C)O[C@@H]2C[C@@]1(OC)n1c3ccccc3c3c4c(c5c6ccccc6n2c5c31)C(=O)NC4 [SCZ B (4), streptocarbazole B] | only active against the N. fowleri ATCC 30808 strain | >1.7 | 11.5 ± 0.31 µM | > 20 µM | 
CN[C@@H]1C[C@H]2O[C@@](C)([C@@H]1OC)n1c3ccccc3c3c4c(c5c6ccccc6n2c5c31)C(=O)NC4 [STS (1), staurosporine] |  |  |  |  | Plasmatic membrane permeabilization (SYTOX Green) [5]: caused plasmatic membrane permeabilization in both strains; Chromatin condensation (Hoechst stain) [6]: the nuclei are intense blue; Intracellular ROS (CellROX Deep Red) [7]: Increased levels of intracellular ROS; Mitochondrial membrane potential (JC-1) [8]: Mitochondrial potential collapse was observed; IC90 ([3]; ATCC30215, calculated from IC50 and Hill slope, table footnote, unit inferred, read-out: IC90 N. fowleri ATCC 30215): 0.97 µM
